According to ChEMBL document CHEMBL6109087, “Design and synthesis of azole derivatives of echinocystic acid as α-glucosidase inhibitors with hypoglycemic activity” (Eur J Med Chem, 2025):
Activity calls are given as the source filed them. No cut-off for these calls is given here.

Key:
[1] = target: Alpha-glucosidase (Saccharomyces cerevisiae S288c) (UniProt P53341+P38158+P07265); test: Inhibition of alpha-glucosidase using 4-Nitrophenyl-[…]-D-glucopyranoside (pNPG) as substrate assessed as inhibition rate at 30 uM relative control; type: protein assay
Alpha-glucosidase [2] = target: T1, Alpha-glucosidase (Saccharomyces cerevisiae S288c, UniProt P53341+P38158+P07265); test: Inhibition of alpha-glucosidase using 4-Nitrophenyl-[…]-D-glucopyranoside (pNPG) as substrate; type: protein assay
Mus musculus = test: Reduction in blood glucose concentration in male C57BL/6J mouse assessed as peak blood glucose and glucose AUC at 100 mg/kg preadministered for 30 mins via gavage followed by treated 2 g/Kg of sucrose and measured up to 120 mins post sucrose challenge by sucrose loading test; type: functional, organism-based; settings: time 150.0 min
[3] = Cytotoxicity against human LO2 cells assessed as cell viability measured after 24 hrs by MTT assay; type: toxicity, cell-based, L02
[4] = tested on: alpha-glucosidase (unknown origin); test: Selectivity index, ratio of CC50 for Cytotoxicity against human LO2 cells to IC50 for alpha-glucosidase (unknown origin); type: toxicity, cell-based, L02; settings: read-out: Selectivity Index
Alpha-glucosidase [5] = target: T1, Alpha-glucosidase; test: Inhibition of alpha-glucosidase using P-nitro phenyl-alpha-D-glucopyranoside as substrate assessed as substrate hydrolysis; type: protein assay
Alpha-glucosidase [6] = target: T1, Alpha-glucosidase; test: Inhibition of alpha-glucosidase; type: protein assay
Alpha-glucosidase [7] = target: T1, Alpha-glucosidase; test: Binding affinity to alpha-glucosidase assessed as inhibition constant; type: protein assay

Row | SMILES | inhibition [1] [%] | IC50 (Alpha-glucosidase [2]) [µM] | further results
1 | COc1ccc(-c2nnc(COC(=O)[C@]34CCC(C)(C)C[C@H]3C3=CC[C@@H]5[C@@]6(C)CC[C@H](O)C(C)(C)[C@@H]6CC[C@@]5(C)[C@]3(C)C[C@H]4O)o2)cc1 | 56.5 | 22.28 | 
2 | C[C@H]1O[C@H](O[C@H]2[C@H](O)[C@@H](O)[C@@H](O[C@H]3[C@H](O)[C@@H](O)C(O)O[C@@H]3CO)O[C@@H]2CO)[C@H](O)[C@@H](O)[C@@H]1N[C@H]1C=C(CO)[C@@H](O)[C@H](O)[C@H]1O (some centres not stated) |  |  | Activity (Mus musculus): Active
3 | CC1(C)CC[C@]2(C(=O)NCc3cn(-c4ccc(F)cc4)nn3)[C@H](O)C[C@]3(C)C(=CC[C@@H]4[C@@]5(C)CC[C@H](O)C(C)(C)[C@@H]5CC[C@]43C)[C@@H]2C1 | 47.7 | > 30 | 
4 | COc1ccc(NC(=O)Cn2cc(COc3cc(O)c4c(=O)c5ccc(OC)cc5oc4c3)nn2)c(OC)c1 |  |  | IC50 (Alpha-glucosidase [5]): 2.06 µM
5 | CC1(C)CC[C@]2(C(=O)OCc3nc(-c4ccc(Cl)c(Cl)c4)no3)[C@H](O)C[C@]3(C)C(=CC[C@@H]4[C@@]5(C)CC[C@H](O)C(C)(C)[C@@H]5CC[C@]43C)[C@@H]2C1 | 36.5 | > 30 | 
6 | COc1ccc(-n2cc(CNC(=O)[C@]34CCC(C)(C)C[C@H]3C3=CC[C@@H]5[C@@]6(C)CC[C@H](O)C(C)(C)[C@@H]6CC[C@@]5(C)[C@]3(C)C[C@H]4O)nn2)cc1 | 48.5 | > 30 | 
7 | CC1(C)CC[C@]2(C(=O)NCc3cn(-c4ccccc4)nn3)[C@H](O)C[C@]3(C)C(=CC[C@@H]4[C@@]5(C)CC[C@H](O)C(C)(C)[C@@H]5CC[C@]43C)[C@@H]2C1 | 55.9 | 22.72 | 
8 | CC1(C)CC[C@]2(C(=O)OCC(=O)NCc3cn(-c4ccccc4)nn3)[C@H](O)C[C@]3(C)C(=CC[C@@H]4[C@@]5(C)CC[C@H](O)C(C)(C)[C@@H]5CC[C@]43C)[C@@H]2C1 | 59.9 | 21.7 | 
9 | CC1(C)CC[C@]2(C(=O)OCc3nc(-c4ccc(Cl)cc4)no3)[C@H](O)C[C@]3(C)C(=CC[C@@H]4[C@@]5(C)CC[C@H](O)C(C)(C)[C@@H]5CC[C@]43C)[C@@H]2C1 | 85.1 | 4.11 | CC50 at 24 h [3]: 108 µM; selectivity ratio [4]: 26.4
10 | CC1(C)CC[C@]2(C(=O)OCc3nnc(-c4ccc(Cl)c(Cl)c4)o3)[C@H](O)C[C@]3(C)C(=CC[C@@H]4[C@@]5(C)CC[C@H](O)C(C)(C)[C@@H]5CC[C@]43C)[C@@H]2C1 | 69.8 | 17.25 | 
11 | CC1(C)CC[C@]2(C(=O)OCCn3ncn(-c4ccc(F)cc4)c3=O)[C@H](O)C[C@]3(C)C(=CC[C@@H]4[C@@]5(C)CC[C@H](O)C(C)(C)[C@@H]5CC[C@]43C)[C@@H]2C1 | 56.9 | 29.32 | 
12 | O=C(Cc1cccs1)N[C@@H]1C(=O)N2C(C(=O)O)=C(CSc3nc[nH]n3)CS[C@H]12 [CEFETRIZOLE] |  |  | IC50 (Alpha-glucosidase [6]): 2.1 µM; Ki (Alpha-glucosidase [7]): 0.578 µM
13 | CC1(C)CC[C@]2(C(=O)OCCn3ncn(-c4ccc(Cl)cc4)c3=O)[C@H](O)C[C@]3(C)C(=CC[C@@H]4[C@@]5(C)CC[C@H](O)C(C)(C)[C@@H]5CC[C@]43C)[C@@H]2C1 | 47.7 | 28.69 | 
14 | CC1(C)CC[C@]2(C(=O)OCc3nc(-c4ccccc4)no3)[C@H](O)C[C@]3(C)C(=CC[C@@H]4[C@@]5(C)CC[C@H](O)C(C)(C)[C@@H]5CC[C@]43C)[C@@H]2C1 | 58.3 | 26.2 | 
15 | COc1cc(-n2cc(CNC(=O)[C@]34CCC(C)(C)C[C@H]3C3=CC[C@@H]5[C@@]6(C)CC[C@H](O)C(C)(C)[C@@H]6CC[C@@]5(C)[C@]3(C)C[C@H]4O)nn2)cc(OC)c1OC | 6.67 | > 30 | 
16 | CC1(C)CC[C@]2(C(=O)OCc3nnc(-c4ccccc4)o3)[C@H](O)C[C@]3(C)C(=CC[C@@H]4[C@@]5(C)CC[C@H](O)C(C)(C)[C@@H]5CC[C@]43C)[C@@H]2C1 | 57.2 | 19.36 | 
17 | COc1ccc(CC2(Cc3cn(-c4ccc(C)cc4)nn3)C(=O)OC(C)(C)OC2=O)cc1 |  |  | IC50 (Alpha-glucosidase [5]): 4.63 µM
18 | CC1(C)CC[C@]2(C(=O)NCc3cn(-c4ccc(Cl)cc4)nn3)[C@H](O)C[C@]3(C)C(=CC[C@@H]4[C@@]5(C)CC[C@H](O)C(C)(C)[C@@H]5CC[C@]43C)[C@@H]2C1 | 69.2 | 21.19 | 

Further lines, with some results ahead:

Row | inhibition [1] [%] | IC50 (Alpha-glucosidase [2]) [µM] | SMILES | further results
19 | 63 | 21.25 | Cc1ccc(-n2cc(CNC(=O)[C@]34CCC(C)(C)C[C@H]3C3=CC[C@@H]5[C@@]6(C)CC[C@H](O)C(C)(C)[C@@H]6CC[C@@]5(C)[C@]3(C)C[C@H]4O)nn2)cc1 | 
20 | 18.4 | 59.91 | CC1(C)CC[C@]2(C(=O)O)[C@H](O)C[C@]3(C)C(=CC[C@@H]4[C@@]5(C)CC[C@H](O)C(C)(C)[C@@H]5CC[C@]43C)[C@@H]2C1 | CC50 at 24 h [3]: 56.2 µM; selectivity ratio [4]: 0.94; Activity (Mus musculus): Active
21 | 67.3 | 21.94 | CC1(C)CC[C@]2(C(=O)OCc3nnc(-c4ccc(Cl)cc4)o3)[C@H](O)C[C@]3(C)C(=CC[C@@H]4[C@@]5(C)CC[C@H](O)C(C)(C)[C@@H]5CC[C@]43C)[C@@H]2C1 | 
22 | 63.3 | 18.18 | CC1(C)CC[C@]2(C(=O)OCC(=O)NCc3cn(-c4ccc(Cl)cc4)nn3)[C@H](O)C[C@]3(C)C(=CC[C@@H]4[C@@]5(C)CC[C@H](O)C(C)(C)[C@@H]5CC[C@]43C)[C@@H]2C1 | 
23 | 10.5 | > 30 | CC1(C)CC[C@]2(C(=O)OCc3nc(-c4ccc(Cn5cncn5)cc4)no3)[C@H](O)C[C@]3(C)C(=CC[C@@H]4[C@@]5(C)CC[C@H](O)C(C)(C)[C@@H]5CC[C@]43C)[C@@H]2C1 | 
24 | 87.3 | 3.4 | CC1(C)CC[C@]2(C(=O)OCC(=O)NCc3cn(-c4ccc(Cl)c(Cl)c4)nn3)[C@H](O)C[C@]3(C)C(=CC[C@@H]4[C@@]5(C)CC[C@H](O)C(C)(C)[C@@H]5CC[C@]43C)[C@@H]2C1 | CC50 at 24 h [3]: 198 µM; selectivity ratio [4]: 58.3
25 | 49.1 | > 30 | COc1cc(-c2nnc(COC(=O)[C@]34CCC(C)(C)C[C@H]3C3=CC[C@@H]5[C@@]6(C)CC[C@H](O)C(C)(C)[C@@H]6CC[C@@]5(C)[C@]3(C)C[C@H]4O)o2)cc(OC)c1OC | 
26 | 61.5 | 18.52 | CC1(C)CC[C@]2(C(=O)OCC(=O)NCc3cn(-c4ccc(F)cc4)nn3)[C@H](O)C[C@]3(C)C(=CC[C@@H]4[C@@]5(C)CC[C@H](O)C(C)(C)[C@@H]5CC[C@]43C)[C@@H]2C1 | 
27 | 94.8 | 3.41 | COc1ccc(-c2noc(COC(=O)[C@]34CCC(C)(C)C[C@H]3C3=CC[C@@H]5[C@@]6(C)CC[C@H](O)C(C)(C)[C@@H]6CC[C@@]5(C)[C@]3(C)C[C@H]4O)n2)cc1 | CC50 at 24 h [3]: 38.5 µM; selectivity ratio [4]: 11.3
28 | 64.6 | 16.01 | CC1(C)CC[C@]2(C(=O)OCc3nc(-c4ccc(F)cc4)no3)[C@H](O)C[C@]3(C)C(=CC[C@@H]4[C@@]5(C)CC[C@H](O)C(C)(C)[C@@H]5CC[C@]43C)[C@@H]2C1 | 
29 | 80.3 | 3.42 | CC1(C)CC[C@]2(C(=O)OCCn3ncn(-c4ccc(Cl)c(Cl)c4)c3=O)[C@H](O)C[C@]3(C)C(=CC[C@@H]4[C@@]5(C)CC[C@H](O)C(C)(C)[C@@H]5CC[C@]43C)[C@@H]2C1 | CC50 at 24 h [3]: 66.8 µM; selectivity ratio [4]: 19.5
30 | 68 | 23.62 | CC1(C)CC[C@]2(C(=O)OCC(=O)NCc3cn(-c4ccc(Br)cc4)nn3)[C@H](O)C[C@]3(C)C(=CC[C@@H]4[C@@]5(C)CC[C@H](O)C(C)(C)[C@@H]5CC[C@]43C)[C@@H]2C1 | 
31 | 51.4 | > 30 | COc1ccc(-n2cc(CNC(=O)COC(=O)[C@]34CCC(C)(C)C[C@H]3C3=CC[C@@H]5[C@@]6(C)CC[C@H](O)C(C)(C)[C@@H]6CC[C@@]5(C)[C@]3(C)C[C@H]4O)nn2)cc1 | 
32 | 46.1 | > 30 | CC1(C)CC[C@]2(C(=O)OCCn3ncn(-c4ccccc4)c3=O)[C@H](O)C[C@]3(C)C(=CC[C@@H]4[C@@]5(C)CC[C@H](O)C(C)(C)[C@@H]5CC[C@]43C)[C@@H]2C1 | 
